The results in this text go back to US7078487B2, “PTH1R receptors” (The General Hospital Corporation, priority 1998, dated 2006).

Assay [1] deals with zPTH3R. In words: Agonist-stimulated cAMP accumulation, COS-7 cells expressing zPTH3R. The format is cell-based, zebrafish. The protocol: (§1) Plasmid DNAs encoding the two full length ZPTH1Rs (#25 and #29) and the zPTH3R were transiently expressed in COS-7 cells. COS-7 African green monkey kidney cells (approximately 200,000 cells/well in a 24-well plate) were cultured and transfected with plasmid DNA (200 ng/well) as described (Rubin et al., (1998)). After transfection, cells were cultured for 72 hrs at 37° with daily exchanges of medium, followed by an additional 24 hrs at 33° (Gardella et al., (1997)) until they were functionally evaluated after 96 hrs.
Chain of zPTH3R (as listed by the source): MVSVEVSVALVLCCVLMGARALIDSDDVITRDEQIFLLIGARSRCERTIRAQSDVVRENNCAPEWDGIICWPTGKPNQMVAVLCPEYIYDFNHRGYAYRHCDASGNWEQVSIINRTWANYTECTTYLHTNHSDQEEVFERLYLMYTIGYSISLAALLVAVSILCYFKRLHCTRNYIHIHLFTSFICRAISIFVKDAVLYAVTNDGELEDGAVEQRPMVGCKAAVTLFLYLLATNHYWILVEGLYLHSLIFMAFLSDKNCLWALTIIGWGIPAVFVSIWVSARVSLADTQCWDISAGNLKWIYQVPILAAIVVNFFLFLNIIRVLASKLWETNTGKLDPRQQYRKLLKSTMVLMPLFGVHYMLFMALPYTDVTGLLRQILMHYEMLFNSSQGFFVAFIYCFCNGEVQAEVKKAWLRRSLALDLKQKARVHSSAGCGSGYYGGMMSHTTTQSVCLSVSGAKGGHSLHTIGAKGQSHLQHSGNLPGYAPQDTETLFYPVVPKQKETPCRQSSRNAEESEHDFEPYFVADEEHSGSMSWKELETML
(§2) In order to assess agonist-dependent cAMP accumulation of COS-7 cells expressing zPTH1R and zPTH3R, experiments were done in 24-well plates with COS-7 cells stimulated in the presence of increasing concentrations of either PTH or PTHrP, and intracellular cAMP was determined as described (Bergiwtz et al.,(1998)). EC50 values were determined as previously described (Gardella et al., (1996)).
(§3) Competitive binding and cAMP stimulation assays were performed at room temperature with intact COS-7 cells that expressed either the zPTH1R or the zPTH3R, as described in Materials and Methods. Homologous binding reactions utilized ^125I-rPTH with unlabeled rPTH, and ^125I-hPTHrP with unlabeled hPTHrP, heterologous binding reactions utilized ^125I-[…] with unlabeled rPTH. EC50 and IC50 values were determined as previously described (Gardella et al., 1996). Values are the mean±SEM of at least three independent transfections. ND, not determined.
On the technique in general: Changes in cAMP serve as a functional read-out for many G protein-coupled receptors.

The test system of assay [2] is zPTH1R. Description: Total inositol phosphate accumulation, COS-7 cells expressing zPTH1R. The conditions noted are these: ligand 10^−6 M, 30 mM LiCl. The format is cell-based, zebrafish. The procedure: (§4) In order to determine total inositol phosphate turnover for COS-7 cells expressing zPTH1R, zPTH3R, and hPTH1R, cells were grown in 6-well plates with COS-7 cells (approximately 200,00 cells/well transfected with either 1 μg/well of zPTH1R, zPTH3R, or hPTH 1R (stina)). Cells were cultured for 3 days inDMEM/7% fetal bovine serum (FBS) at 37° C. with daily exchanges of medium. The cells were then preloaded with 3 μCi/ml myo-[^3H]inositol (New England Nuclear, Boston, Mass.) in inositol-free DMEM (Gibco)/7% FBS (33° C. for 18 hr). The following day, plates were rinsed and then incubated with 10^−6 M of either PTH, PTHrP in DMEM/0.1% BSA, or with DMEM/0.1% BSA alone (40 min at 37° C.), in the presence of 30 mM LiCl. Total inositol phosphate (IPs) were isolated by anion exchange column chromatography as previously described (Iida-Klein et al., (1994 and 1995)), and 1 ml of the eluate (⅛th of total) was counted in a liquid scintillation counter (model LS 60001C, Beckman, Fullerton, Calif.). All points represent mean±S.E.M. of two to three replicates from two or more independent experiments.
Chain of zPTH1R (as listed by the source): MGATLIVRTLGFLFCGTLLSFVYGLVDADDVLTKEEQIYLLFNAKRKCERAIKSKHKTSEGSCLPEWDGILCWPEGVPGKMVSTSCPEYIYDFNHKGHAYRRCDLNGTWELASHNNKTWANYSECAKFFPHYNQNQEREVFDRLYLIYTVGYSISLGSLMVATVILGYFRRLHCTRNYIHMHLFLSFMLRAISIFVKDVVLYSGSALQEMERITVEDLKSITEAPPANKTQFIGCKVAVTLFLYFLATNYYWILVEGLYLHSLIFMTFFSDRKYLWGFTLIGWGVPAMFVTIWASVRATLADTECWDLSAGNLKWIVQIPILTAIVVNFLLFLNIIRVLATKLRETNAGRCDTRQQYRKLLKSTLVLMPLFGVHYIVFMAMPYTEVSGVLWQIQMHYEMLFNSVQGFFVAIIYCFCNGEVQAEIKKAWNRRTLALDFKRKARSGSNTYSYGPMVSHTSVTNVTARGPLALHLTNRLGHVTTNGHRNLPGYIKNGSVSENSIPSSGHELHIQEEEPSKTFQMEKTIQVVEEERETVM

Assay [3] has as its system zPTH1R. Description: Agonist-stimulated cAMP accumulation, COS-7 cells expressing zPTH1R. The conditions noted are these: for cAMP Maximum / EC50: intact COS-7 cells, room temperature. Type of assay: cell-based, zebrafish. The procedure: as §1, §2, §3
In assay [4] the test system is zPTH3R. In words: Total inositol phosphate accumulation, COS-7 cells expressing zPTH3R. The format is cell-based, zebrafish. The conditions noted are these: ligand 10^−6 M, 30 mM LiCl. The protocol:
as §4

Assay [5] relates to zPTH3R. Description: Competitive radioligand binding, COS-7 cells expressing zPTH3R. Details: species or system zebrafish. The protocol: as §1
Radioligand studies with COS-7 cells expressing either zPTH1R or zPTH3R were performed as described using either ^125I-labeled [Nle^8,21,Tyr^34]rPTH-(1–34)amide (rPTH) (SEQ ID NO:22) or ^125I-labeled [Tyr^36]hPTHrP-(1–36)amide (PTHrP) (SEQ ID NO:23), and increasing concentrations of either [Tyr^34]hPTH(1–34)amide (PTH) (SEQ ID NO:24), or [Tyr36]hPTHrP(1–36)amide (PTHrP) (SEQ ID NO:25) (Bergwitz et al., (1997)). […] Specific binding was calculated by subtracting radioligand binding in the presence of excess unlabeled peptide from the total binding. […]
Competitive binding and cAMP stimulation assays were performed at room temperature with intact COS-7 cells that expressed either the zPTH1R or the zPTH3R, as described in Materials and Methods. […] EC50 and IC50 values were determined as previously described (Gardella et al., 1996). […] ND, not determined.

Setting [6] is: zPPR3, intact COS-7 cells, room temperature.

As for “AVAEIQLMHNLGKHLNSMERVEWLRKKLQDVHDY [hPTH, [Tyr^34]hPTH(1–34)amide]”, the EC50 (as a rule, the concentration that produces a half-maximal response) in the assay with zPTH3R [1] (setting [6]) turned out to be 5.98 ± 0.24 nM; in the assay on zPTH1R [3] (zPPR1#29), 0.8 ± 0.03 nM. For the same substance, the “maximal cAMP accumulation” value stood at 227.4 ± 41.6 pmol/well in the assay with zPTH3R [1] (setting [6]); 285 pmol/well in the assay with zPTH3R [1] (zPTH3R, COS-7 cells); 90.4 pmole/well in the assay with zPTH1R [3] (zPTH1R#25, COS-7 cells); 106.2 pmole/well in the assay with zPTH1R [3] (zPTH1R#29, COS-7 cells). The “increase of IP accumulation” value with zPTH1R [2] turned out to be 2 fold. For the same substance, the “cAMP Maximum” value with zPTH1R [3] (zPPR1#25) was 90.4 ± 11.4 pmol/well; in the assay on zPTH1R [3] (zPPR1#29), 106.2 ± 4.8 pmol/well. Besides, in the assay with zPTH3R [4], the IP accumulation entry was “no IP accumulation was detectable”.

As for [Tyr36]hPTHrP(1–36)amide, the EC50 with zPTH3R [1] (setting [6]) came to 0.49 ± 0.17 nM; with zPTH1R [3] (zPPR1#25), 0.9 ± 0.09 nM; with zPTH1R [3] (zPPR1#29), 0.3 ± 0.04 nM. The “maximal cAMP accumulation” value was found to be 285.4 ± 3.4 pmol/well with zPTH3R [1] (setting [6]); 227 pmol/well in the assay on zPTH3R [1] (zPTH3R, COS-7 cells); 92.4 pmole/well in the assay with zPTH1R [3] (zPTH1R#25, COS-7 cells); 101.6 pmole/well with zPTH1R [3] (zPTH1R#29, COS-7 cells). In the assay with zPTH3R [1] (zPTH3R, COS-7 cells, 10^−11 M), the “cAMP activation at low concentration” value is “significant activation”. The “increase of IP accumulation” value in the assay with zPTH1R [2] was determined as 2 fold. Besides, the half-maximal inhibitory concentration (IC50) (in general, the concentration needed to halve the response being measured) in the assay with zPTH3R [5] (setting [6]) was around 3 nM. Moreover, the Kd in the assay on zPTH3R [5] (zPTH3R, COS-7 cells, read-out: apparent Kd) is around 3 nM. The “cAMP Maximum” value in the assay with zPTH1R [3] (zPPR1#25) is listed as 92.4 ± 8.00 pmol/well; with zPTH1R [3] (zPPR1#29) it was 101.6 ± 3.6 pmol/well. Further, the IP accumulation entry in the assay with zPTH3R [4] is “no IP accumulation was detectable”.
